Data: patent US11931374B2, “Adenosine receptor modulators for the treatment of circadian rhythm disorders” (OXFORD UNIVERSITY INNOVATION LIMITED, priority 2016, dated 2024)

Key:
[1] = test system: Per2::Luc U2OS cells; test: Per2::Luc cell based circadian assay; conditions: for circadian period length: Per2::Luc U2OS cells, dose response
Procedure: U2OS cells stably transfected with a Per2::Luc reporter were cultured in DMEM supplemented with 10% FBS. For siRNA- and drug-based experiments, cells were seeded at 5,000 per well into white 384 well plates and transfected with 20 nM siRNA the next day. 2 days later, the cells were synchronized with 100 nM dexamethasone and the medium was replaced with phenol-red free DMEM supplemented with B-27 and 100 µM luciferin potassium salt, requisite drugs formulated in DMSO as a 1000× stock was added, and then sealed. Per2::Luc rhythms were recorded from a BMG Labtech Fluostar Omega plate reader maintained at 36° C. and readings taken from each well every hour. Data were then analysed using either Multicycle or Brass rhythm analysis software.
Period2::Luciferase (Per2::Luc) stable U2OS transfects were cultured, as described above. A Greiner Bio-One 384 Well Plate (Polystyrene, F-bottom), was then seeded at 6000 cells per 50 μl well. Following a 24 hour period, the cells were treated with 0.1% dexamethasone, a glucocorticoid hormone analogue known to reset intracellular circadian rhythms, for 1 hour. Subsequently, the dexamethasone-containing medium was removed, the cells were washed with PBS and luciferin and test drug containing medium was added. The cells were then assayed for luminescence over a period of 96 hours in the BMG FLUOstar OPTIMA Microplate Reader to observe the periodicity and amplitude of the luminescence values.

[2] = test system: STAR-PROM plasmid library; test: STAR-PROM transcription factor screening in U2OS cells; assay type: cell-based; conditions: siFos
Procedure: This was conducted as previously reported in Gerber et al., Cell. […] Briefly, U2OS cells were cultured in 6-well plates and transfected with 1 ug of the STAR-PROM plasmid library (library structure as in above reference). RNA was extracted at set time points and sequenced for the barcoded luciferase constructs and analysed with Galaxy (https://use.galaxy.org).

[3] = test system: Per1/2; test: Sleep deprivation, Per1/2 expression within the SCN; assay type: in vivo; conditions: sleep deprivation decreases Per1/2 expression
[4] = test system: intracellular levels of cAMP; test: cAMP GloSensor assay in U2OS cells; assay type: cell-based
Procedure: The GloSensor™ cAMP Assay (Promega) was used for detecting changes in the intracellular levels of cAMP. Initially, a Greiner Bio-One 96 Well Plate (white, TC treated) was seeded at 8000 cells per 100 μl well, as described above. After 24 hours, the cells were transfected with the pGloSensor™ cAMP Plasmid using the Viafect transfection reagent as above. Between 24 and 48 hours later, allowing for the accumulation of the biosensor, the medium in the 96 well plate was changed to C02-Independent Medium supplemented with GlutaMAX™ (Life Technologies), 10% fetal bovine serum and 2% GloSensor™ cAMP Reagent. The plate was then stood for 2 hours at room temperature to equilibrate. Following the incubation period, the cells were treated with relevant drugs and their luminescence values were measured after 20 minutes in the BMG FLUOstar OPTIMA Microplate Reader, with forskolin as a positive control, and DMSO as a negative control.

[5] = test system: CRE::Luc reporter; test: CRE-Luc luciferase assay in U2OS cells; assay type: cell-based
Procedure: At 60-80% confluence and >90% viability, the U2OS cells in the T-75 flask were washed twice with 6 ml phosphate-buffered saline (PBS) and subsequently treated with 4 ml of TrypLE™ Express trypsin replacement solution for 10 minutes. A Greiner Bio-One 96 Well Plate (white, TC treated), was then seeded at 8000 cells per well. Following 24 hours, the cells were transfected at 50-70% confluency with CRE-luc Vector generated in-house with Viafect transfection reagent at 1:4 ratio (100 ng DNA/well) following manufacturers recommendations.
24 hours after transfection, the medium in the 96 well plate was changed to a serum-free medium with 1 mM luciferin. The cells were then incubated in serum starvation conditions for 6-8 hours, this was optimised to yield the greatest signal strength and lowest noise when assayed with forskolin control. Following the incubation period, the CRE-Luc U2OS cells were treated with the appropriate drug and their luminescence values were measured after 6 hours in the BMG FLUOstar OPTIMA Microplate Reader. […] Unless stated otherwise, forskolin was used as a positive control, and 1% DMSO was used as a negative control.

[6] = test system: Per1; test: Per1 mRNA levels in U2OS cells by qPCR; assay type: cell-based; conditions: U2OS cells, qPCR, concentration not given
Procedure: (§1) Total RNA was extracted using the microRNeasy column method (Qiagen, Hilden, Germany). Quality and quantity of RNA were measured using an Agilent Bioanalyzer and a Nanodrop1000 (Thermo Fisher Scientific, Waltham, MA USA), respectively.
(§2) RNA samples were prepared as described for microarray hybridisation. cDNA was synthesized with a qScript cDNA synthesis kit (Quanta Biosciences, Gaithersburg, MD), and quantitative PCR (qPCR) was conducted with Sybr green I and an SDS7700 thermal cycler (Applied Biosystems, Foster City, CA). Relative quantification of transcript levels was done as described previously (Peirson et al., Nucleic Acids Res. 2003 Jul. 15; 31(14):e73.). The geometric mean of a minimum of three housekeeping genes was used for normalization (Gapdh, ActB, GusB and Rps9 for example).
(§3) Cells from the U2OS (HTB-96) line were obtained, tested and identified. The cells were cultured in T-75 flasks, in Dulbecco's modified Eagle medium (DMEM) supplemented with 10% foetal bovine serum (FBS) and 1% penicillin-streptomycin (P/S) at 37° C. in a humidified atmosphere at 5% CO2. The cells were subcultured every 2 to 4 days in a 1:2 to 1:6 ratio, in accordance with the ATCC recommendations. The cells were counted using a haemocytometer, and their viability in a culture was maintained at above 95%, measured with a Presto Blue exclusion assay according to the manufacturer's specifications. Cells were transfected with siRNAs (typically at 50 nM concentrations, sequences as previously listed), the CRE::Luc (pGL4.29[luc2P/CRE/Hygro] Vector, encoding Luc2P […] under the control of a strong cAMP response element (CRE) promoter containing 3 CRE elements within its sequence; Promega) reporter vector or cAMP-GLOSensor plasmid (Promega) as per manufacturer's instructions using either Lipofectamine RNAimax (Invitrogen) or Lipofectamine3000 (Invitrogen).

[7] = test system: Per2; test: Per2 mRNA levels in U2OS cells by qPCR; assay type: cell-based; conditions: U2OS cells, qPCR, concentration not given
Procedure: as §1, §2, §3

[8] = test system: C57Bl/6 mice; test: Phase shifting of circadian activity by drug (running wheel); assay type: in vivo; conditions: administered at CT22, absence of a light pulse
Procedure: Animals were housed under a reversed 12:12 LD cycle (400 lux from white LED lamps) with food and water ad libitum. For phase-shifting studies, C57Bl/6 mice were maintained on running wheels in light tight chambers on a 12:12 LD cycle (400 lux from white LED lamps) and injected with drug at the indicated time points. The drugs were formulated in a vehicle consisting of 5% Koliphor-HS15 (Sigma-Aldrich, UK) 5% Cyclodextran (Sigma-Aldrich, UK) in 0.9% saline. This vehicle was warmed to 37° C. and the indicated drugs kept at a 100× stock in DMSO and mixed at the appropriate concentration to be administered at approximately 300 ul intraperitoneal injection (n=6 to 10). Where the time point of injection was in the dark, the procedure was conducted under dim red light. Where measuring phase-shifting, the mice were then placed in DD and allowed to free run for 14 days in DD, running wheel activity data was collected and analysed on Clocklab (Actimetrics, Wilmette, IL). For jet-lag studies, mice were maintained on running wheels in light tight chambers on a 12:12 LD cycle (400 lux from white LED lamps) and injected with drugs as above at ZT6 and the LD cycle was shifted 6 hours in advance. The onset of activity on each day was used to measure phase relative to the LD cycle.
Phase Shifting: C57Bl/6 male mice (80 days or older) were maintained on running wheels in light tight chambers on a 12:12 LD cycle (100 lux from white LED lamps) on stable entrainment, were released in complete darkness. At set times as indicated in the experiments, the animals received an intraperitoneal injection (300 ul) of drug constituted in sterile saline with 5% Cyclodextrin (Sigma-Aldrich) and 5% Koliphor (Sigma-Aldrich) and then allowed to free run in DD, running wheel activity data were collected and analysed on Clocklab (Actimetrics, Wilmette, IL).

[9] = test system: C57Bl/6 mice; test: Phase shifting of circadian activity in response to a light pulse with drug; assay type: in vivo; conditions: 1 mg/kg intraperitoneal before 30 min 400 lux light pulse at CT22
Procedure: Animals were maintained in a 12 h light (white) 12 h dark (grey) cycle and vehicle was administered just before a 30 min 400 lux light pulse (white bar) at time CT 22 (or 10 hours after lights off). All light cues were then removed to allow the animals free running clock to express. A gap in the lines on the day after the light pulse was administered indicates a phase shift.
Animals were maintained in a 12 h light (white) 12 h dark (grey) cycle and IB-MECA (1 mg/kg) was administered just before a 30 min 400 lux light pulse (white bar) at time CT 22 (or 10 hours after lights off).
Animals were housed under a reversed 12:12 LD cycle (400 lux from white LED lamps) with food and water ad libitum. For phase-shifting studies, C57Bl/6 mice were maintained on running wheels in light tight chambers on a 12:12 LD cycle (400 lux from white LED lamps) and injected with drug at the indicated time points. The drugs were formulated in a vehicle consisting of 5% Koliphor-HS15 (Sigma-Aldrich, UK) 5% Cyclodextran (Sigma-Aldrich, UK) in 0.9% saline. […] Where measuring phase-shifting, the mice were then placed in DD and allowed to free run for 14 days in DD, running wheel activity data was collected and analysed on Clocklab (Actimetrics, Wilmette, IL). […]

[10] = test system: Per1/2; test: Sleep deprivation, Per1/2 within the cortex; assay type: in vivo; conditions: data not shown

**Q.** What does the source list for Nc1nc2ccc(Cl)cc2c2nc(-c3ccco3)nn12 [CGS15943, 9-chloro-2-(furan-2-yl)-[1,2,4]triazolo[1,5-c]quinazolin-5-amine]?
**A.** period lengthening effect after knockdown of adenosine receptors ([1]; A1, A2A, A2B adenosine receptors in U2OS cells knocked down using siRNA): lost; response of clone3 after siRNA-mediated silencing of Fos [2]: significantly reduced

**Q.** For CCNC(=O)[C@H]1O[C@@H](n2cnc3c(N)nc(NCCc4ccc(CCC(=O)O)cc4)nc32)[C@H](O)[C@@H]1O.Cl [CGS21680, 3-[4-[2-[[6-amino-9-[(2R,3R,4S,5S)-5-(ethylcarbamoyl)-3,4-dihydroxy-oxolan-2-yl]purin-2-yl]amino]ethyl]phenyl]propanoic acid], which “Per1/2 expression within the SCN” value [3] is on record?
**A.** increased Per1/2 expression

**Q.** What does the source list for CNC(=O)[C@H]1O[C@@H](n2cnc3c(NCc4cccc(I)c4)ncnc32)[C@H](O)[C@@H]1O [IB-MECA, 1-Deoxy-1-[6-[((3-Iodophenyl)methyl)amino]-9H-purin-9-yl]-N-methyl-β-D-ribofuranuronamide]?
**A.** circadian period length [1]: dose-dependent period length increases; amplitude of the cellular clock ([1]; Per2::Luciferase construct, U2OS cells): increases in period and amplitude; cAMP levels [4]: concurrent increase; CREB-driven transcription (CRE::Luc reporter) [5]: activation; Per1 mRNA levels / expression [6]: elevated; Per2 mRNA levels / expression [7]: elevated; phase shift of circadian activity [8]: elicited a phase delay; phase advance induced by light pulse [9]: phase advance was lost

**Q.** For CCn1c(=O)c2c(nc(/C=C/c3ccc(OC)c(OC)c3)n2C)n(CC)c1=O [Istradefylline, 8-[(E)-2-(3,4-dimethoxyphenyl)vinyl]-1,3-diethyl-7-methyl-3,7-dihydro-1H-purine-2,6-dione], which circadian period length [1] is on record?
**A.** increased circadian period length in a dose dependent manner

**Q.** O=C(Cc1ccccc1)Nc1nc2ccc(Cl)cc2c2nc(-c3ccco3)nn12 [MRS1220, 9-Chloro-2-(2-furanyl)-5-((phenylacetyl)amino)-[1,2,4]triazolo[1,5-c]quinazoline] was tested. Which circadian period length [1] did it give?
**A.** increased circadian period length in a dose dependent manner

**Q.** How did the circadian period length [1] turn out when Nc1nc(NCCc2ccc(O)cc2)nc2nc(-c3ccco3)nn12 [ZM241385, 4-(2-(7-amino-2-(furan-2-yl)-[1,2,4]triazolo[1,5-a][1,3,5]triazin-5-ylamino)ethyl)phenol] was run?
**A.** increased circadian period length in a dose dependent manner

**Q.** With CC#C[C@]1(O)CC[C@H]2[C@@H]3CCC4=CC(=O)CCC4=C3[C@@H](c3ccc(N(C)C)cc3)C[C@@]21C [mifepristone] as the compound, how does the “sleep deprivation-induced increase of Per1/2 within the cortex” value [10] read?
**A.** blunted this response
